Starred links: 1 amine or outer side, 2 acyl side, 3 side chain; linkers in the order of their positions; H or OH if unused. Positions of bridges follow the written chain, without caps; N, C: chain ends. Residues, ends and D or L forms follow the SMILES beside them. Phenylene(1,4-NHCOCH2)2 = O=C(C[*:1])Nc1ccc(NC(=O)C[*:2])cc1; X4 = O=C(C[*:1])O[C@H]1CC[C@@H](OC(=O)C[*:2])CC1; X5 = CN(C(=O)C[*:1])c1ccc(N(C)C(=O)C[*:2])cc1; X6 = O=C(C[*:1])Nc1cc(Cl)c(NC(=O)C[*:2])cc1Cl; X8 = COc1cc(NC(=O)C[*:2])c(OC)cc1NC(=O)C[*:1]; X3 = O=C(C[*:1])Nc1ccccc1NC(=O)C[*:2]

The values that follow come from patent US12398178B2, “Collections of peptides, peptide agents, and methods of use thereof” (Parabilis Medicines, Inc., priority 2018, dated 2025).

This data set can be described thus: Measurement of LogD (CHI logD by HPLC). In kind it is physicochemical. To be noted: CHI log D, 50 mM ammonium acetate pH 7.4 / acetonitrile gradient, C-18 column, 25° C. As to the method: Measurement of LogD: LogD values were measured on a Agilent 1260 HPLC with UV detector (254, 220 nm), using a Gemini NX C-18 50×3 mm column (Phenomenex) with a 6-minute 0-100% mobile phase gradient of A) 50 mM ammonium acetate pH 7.4 and B) Acetonitrile at 25° C. with a flow rate of 1 mL/min and injection volume of 3-5 uL.

In turn, `CC[C@H](C)[C@@H]1NC(=O)[C@H](CC(C)C)NC(=O)[C@H](C)NC(=O)[C@H](C)NC(=O)[C@H](Cc2c[nH]cn2)NC(=O)[C@H](CCC(=O)O)NC(=O)[C@@H](NC(=O)[C@H](C)NC(=O)[C@H](Cc2c[nH]c3ccccc23)NC(=O)[C@H](CC(C)C)NC(=O)[C@H](C)NC(=O)[C@@H]2CCCN2C(=O)[C@H](CC(=O)O)NC(=O)[C@H](C)N)CSCC(=O)N(C)c2ccc(cc2)N(C)C(=O)CSC[C@@H](C(=O)N[C@@H](CCC(=O)O)C(=O)N[C@H](C(=O)N[C@@H](CCC(N)=O)C(N)=O)[C@@H](C)O)NC1=O` [Compound 40] (H-ADPALWACEHAALICETQ-NH2; linker 8-15 via X5; N-terminus and C-terminus assumed) came in with a chromatographic logD of 0.73.
`CC[C@H](C)[C@@H]1NC(=O)[C@H](CC(C)C)NC(=O)[C@H](C)NC(=O)[C@H](C)NC(=O)[C@H](Cc2c[nH]cn2)NC(=O)[C@H](CCC(=O)O)NC(=O)[C@@H](NC(=O)[C@H](Cc2c[nH]cn2)NC(=O)[C@H](Cc2c[nH]c3ccccc23)NC(=O)[C@H](CCC(N)=O)NC(=O)[C@H](C)NC(=O)[C@@H]2CCCN2C(=O)[C@H](CC(=O)O)NC(=O)[C@H](C)N)CSCC(=O)Nc2ccc(cc2)NC(=O)CSC[C@@H](C(=O)N[C@@H](CCC(=O)O)C(=O)N[C@@H](CC(C)C)C(=O)N[C@@H](CC(=O)O)C(N)=O)NC1=O` [Compound 10] (H-ADPAQWHCEHAALICELD-NH2; linker 8-15 via Phenylene(1,4-NHCOCH2)2; N-terminus and C-terminus assumed) returned a chromatographic logD of 0.39.
Molecule `CC[C@H](C)[C@@H]1NC(=O)[C@H](CC(C)C)NC(=O)[C@H](C)NC(=O)[C@H](C)NC(=O)[C@H](Cc2c[nH]cn2)NC(=O)[C@H](CCC(=O)O)NC(=O)[C@@H](NC(=O)[C@H](C)NC(=O)[C@H](Cc2c[nH]c3ccccc23)NC(=O)[C@H](CC(C)C)NC(=O)[C@H](C)NC(=O)[C@@H]2CCCN2C(=O)[C@H](CC(=O)O)NC(=O)[C@H](C)N)CSCC(=O)O[C@H]2CC[C@H](CC2)OC(=O)CSC[C@@H](C(=O)N[C@@H](CCC(=O)O)C(=O)N[C@H](C(=O)N[C@@H](CCC(N)=O)C(N)=O)[C@@H](C)O)NC1=O` [Compound 45] (H-ADPALWACEHAALICETQ-NH2; linker 8-15 via X4; N-terminus and C-terminus assumed) showed a chromatographic logD of 1.03.
Then `CC[C@H](C)[C@@H]1NC(=O)[C@H](CC(C)C)NC(=O)[C@H](C)NC(=O)[C@H](C)NC(=O)[C@H](Cc2c[nH]cn2)NC(=O)[C@H](CCC(=O)O)NC(=O)[C@@H](NC(=O)[C@H](C)NC(=O)[C@H](Cc2c[nH]c3ccccc23)NC(=O)[C@H](CC(C)C)NC(=O)[C@H](C)NC(=O)[C@@H]2CCCN2C(=O)[C@H](CC(=O)O)NC(=O)[C@H](C)N)CSCC(=O)Nc2ccccc2NC(=O)CSC[C@@H](C(=O)N[C@@H](CCC(=O)O)C(=O)N[C@H](C(=O)N[C@@H](CCC(N)=O)C(N)=O)[C@@H](C)O)NC1=O` [Compound 44] (H-ADPALWACEHAALICETQ-NH2; linker 8-15 via X3; N-terminus and C-terminus assumed), with 0.7; and `CC[C@H](C)[C@@H]1NC(=O)[C@H](CC(C)C)NC(=O)[C@H](C)NC(=O)[C@H](C)NC(=O)[C@H](Cc2c[nH]cn2)NC(=O)[C@H](CCC(=O)O)NC(=O)[C@@H](NC(=O)[C@H](CC(C)C)NC(=O)[C@H](Cc2c[nH]c3ccccc23)NC(=O)[C@H](Cc2ccc(O)cc2)NC(=O)[C@H](C)NC(=O)[C@@H]2CCCN2C(=O)[C@H](CC(=O)O)NC(=O)[C@H](C)N)CSCC(=O)Nc2ccc(cc2)NC(=O)CSC[C@@H](C(=O)N[C@@H](CCC(=O)O)C(=O)N[C@H](C(=O)N[C@@H](CCC(=O)O)C(N)=O)C(C)C)NC1=O` [Compound 13] (H-ADPAYWLCEHAALICEVE-NH2; linker 8-15 via Phenylene(1,4-NHCOCH2)2; N-terminus and C-terminus assumed), with 0.8.
Turning to `COc1cc2c(OC)cc1NC(=O)CSC[C@@H](C(=O)N[C@@H](CCC(=O)O)C(=O)N[C@@H](CC(C)C)C(=O)N[C@H](C(N)=O)C(C)C)NC(=O)[C@H](Cc1c[nH]cn1)NC(=O)[C@H](CC(C)C)NC(=O)[C@H](C)NC(=O)[C@H](C)NC(=O)[C@H](Cc1c[nH]c3ccccc13)NC(=O)[C@H](CCC(=O)O)NC(=O)[C@@H](NC(=O)[C@H](CCCNC(=N)N)NC(=O)[C@H](Cc1c[nH]cn1)NC(=O)[C@@H](NC(=O)[C@H](C)NC(=O)[C@@H]1CCCN1C(=O)[C@H](CC(=O)O)NC(=O)[C@H](C)N)[C@@H](C)O)CSCC(=O)N2` [Compound 34], the chromatographic logD was 0.63.
Turning to `CC[C@H](C)[C@@H]1NC(=O)[C@H](CC(C)C)NC(=O)[C@H](C)NC(=O)[C@H](C)NC(=O)[C@H](Cc2c[nH]cn2)NC(=O)[C@H](CCC(=O)O)NC(=O)[C@@H](NC(=O)[C@H](C)NC(=O)[C@H](Cc2c[nH]c3ccccc23)NC(=O)[C@H](CC(C)C)NC(=O)[C@H](C)NC(=O)[C@@H]2CCCN2C(=O)[C@H](CC(=O)O)NC(=O)[C@H](C)N)CSCC(=O)Nc2cc(OC)c(cc2OC)NC(=O)CSC[C@@H](C(=O)N[C@@H](CCC(=O)O)C(=O)N[C@H](C(=O)N[C@@H](CCC(N)=O)C(N)=O)[C@@H](C)O)NC1=O` [Compound 43] (H-ADPALWACEHAALICETQ-NH2; linker 8-15 via X8; N-terminus and C-terminus assumed), the chromatographic logD is 0.75. The chromatographic logD values of the last two molecules are within 0.2 log units of each other.
Then `CC[C@H](C)[C@@H]1NC(=O)[C@H](CC(C)C)NC(=O)[C@H](C)NC(=O)[C@H](C)NC(=O)[C@H](Cc2c[nH]cn2)NC(=O)[C@H](CCC(=O)O)NC(=O)[C@@H](NC(=O)[C@H](CCC(=O)O)NC(=O)[C@H](Cc2c[nH]c3ccccc23)NC(=O)[C@H](CC(=O)O)NC(=O)[C@H](C)NC(=O)[C@@H]2CCCN2C(=O)[C@H](CC(=O)O)NC(=O)[C@H](C)N)CSCC(=O)Nc2ccc(cc2)NC(=O)CSC[C@@H](C(=O)N[C@@H](CC(=O)O)C(=O)N[C@@H](C)C(=O)N[C@@H](CCSC)C(N)=O)NC1=O` [Compound 12] (H-ADPADWECEHAALICDAM-NH2; linker 8-15 via Phenylene(1,4-NHCOCH2)2; N-terminus and C-terminus assumed), with 0.39; and `CC[C@H](C)[C@@H]1NC(=O)[C@@H](NC(=O)[C@H](CCC(=O)O)NC(=O)[C@H](CC(=O)O)NC(=O)[C@H](CCC(=O)O)NC(=O)[C@H](C)NC(=O)[C@@H]2CCCN2C(=O)[C@H](CC(=O)O)NC(=O)[C@H](C)N)CSCC(=O)Nc2ccc(cc2)NC(=O)CSC[C@@H](C(=O)N[C@@H](CCCNC(=N)N)C(=O)N[C@@H](Cc2c[nH]c3ccccc23)C(=O)N[C@@H](Cc2c[nH]c3ccccc23)C(N)=O)NC(=O)[C@H](CCSC)NC(=O)[C@H](Cc2c[nH]cn2)NC(=O)[C@H](C)NC(=O)[C@H](C)NC(=O)[C@H](CC(C)C)NC1=O` [Compound 8] (H-ADPAEDECILAAHMCRWW-NH2; linker 8-15 via Phenylene(1,4-NHCOCH2)2; N-terminus and C-terminus assumed), with 0.92.
The molecule `CC(C)C[C@@H]1NC(=O)[C@H](C)NC(=O)[C@H](C)NC(=O)[C@H](Cc2c[nH]c3ccccc23)NC(=O)[C@H](CCC(=O)O)NC(=O)[C@@H](NC(=O)[C@H](CCCNC(=N)N)NC(=O)[C@H](Cc2c[nH]cn2)NC(=O)[C@@H](NC(=O)[C@H](C)NC(=O)[C@@H]2CCCN2C(=O)[C@H](CC(=O)O)NC(=O)[C@H](C)N)[C@@H](C)O)CSCC(=O)Nc2ccc(cc2)NC(=O)CSC[C@@H](C(=O)N[C@@H](CCC(=O)O)C(=O)N[C@@H](CC(C)C)C(=O)N[C@H](C(N)=O)C(C)C)NC(=O)[C@H](Cc2c[nH]cn2)NC1=O` [Compound 1] displayed a chromatographic logD of 0.57.
In turn, `CC[C@H](C)[C@@H]1NC(=O)[C@H](CC(C)C)NC(=O)[C@H](C)NC(=O)[C@H](C)NC(=O)[C@H](Cc2c[nH]cn2)NC(=O)[C@H](CCC(=O)O)NC(=O)[C@@H](NC(=O)[C@H](C)NC(=O)[C@H](Cc2c[nH]c3ccccc23)NC(=O)[C@H](CC(C)C)NC(=O)[C@H](C)NC(=O)[C@@H]2CCCN2C(=O)[C@H](CC(=O)O)NC(=O)[C@H](C)N)CSCC(=O)Nc2cc(Cl)c(cc2Cl)NC(=O)CSC[C@@H](C(=O)N[C@@H](CCC(=O)O)C(=O)N[C@H](C(=O)N[C@@H](CCC(N)=O)C(N)=O)[C@@H](C)O)NC1=O` [Compound 42] (H-ADPALWACEHAALICETQ-NH2; linker 8-15 via X6; N-terminus and C-terminus assumed) showed a chromatographic logD of 0.84.
For `CC(C)C[C@@H]1NC(=O)[C@H](C)NC(=O)[C@H](C)NC(=O)[C@H](Cc2c[nH]c3ccccc23)NC(=O)[C@H](CCC(=O)O)NC(=O)[C@@H](NC(=O)[C@H](CCCNC(=N)N)NC(=O)[C@H](Cc2c[nH]cn2)NC(=O)[C@@H](NC(=O)[C@H](C)NC(=O)[C@@H]2CCCN2C(=O)[C@H](CC(=O)O)NC(=O)[C@H](C)N)[C@@H](C)O)CSCC(=O)Nc2cc(Cl)c(cc2Cl)NC(=O)CSC[C@@H](C(=O)N[C@@H](CCC(=O)O)C(=O)N[C@@H](CC(C)C)C(=O)N[C@H](C(N)=O)C(C)C)NC(=O)[C@H](Cc2c[nH]cn2)NC1=O` [Compound 33], the chromatographic logD worked out at 0.68.
Molecule `CC[C@H](C)[C@H](NC(=O)[C@H](CCC(=O)O)NC(=O)[C@@H]1CSCC(=O)Nc2ccc(cc2)NC(=O)CSC[C@H](NC(=O)[C@@H]2CCCN2C(=O)[C@H](Cc2c[nH]c3ccccc23)NC(=O)[C@H](CCC(N)=O)NC(=O)[C@H](C)NC(=O)[C@@H]2CCCN2C(=O)[C@H](CC(=O)O)NC(=O)[C@H](C)N)C(=O)N[C@@H](CCC(=O)O)C(=O)N[C@@H](Cc2c[nH]cn2)C(=O)N[C@@H](C)C(=O)N[C@@H](C)C(=O)N[C@@H](CC(C)C)C(=O)N[C@@H](CC(C)C)C(=O)N1)C(=O)N[C@@H](CCC(=O)O)C(N)=O` [Compound 14] (H-ADPAQWPCEHAALLCEIE-NH2; linker 8-15 via Phenylene(1,4-NHCOCH2)2; N-terminus and C-terminus assumed) registered a chromatographic logD of 0.47.
